US11643413B2, “9-(2-oxacycloalkyl)-9H-purine-2,6-diamine derivatives and their use for the treatment of skin disorders” (UNIVERZITA PALACKEHO V OLOMOUCI, priority 2017, dated 2023)
Read-outs that look alike come from different tables or passages of the source.

What was measured:
[1] = test system: B10A.4
From the text: (§1) One of the parameters used, as the basis for cytotoxicity assays, is the metabolic activity of viable cells. For example, a microtiter assay, which uses the Calcein AM, is now widely used to quantitate cell proliferation and cytotoxicity. […] Because only metabolically active cells cleave Calcein AM, these assays detect viable cells exclusively. The quantity of reduced Calcein AM corresponds to the number of vital cells in the culture.
(§2) Mouse fibroblasts NIH3T3; mouse immortalized bone marrow macrophages B2.4 and B10A.4, and BJ (human foreskin fibroblasts) were used for routine screening of compounds. The cells were maintained in Nunc/Corning 80 cm^2 plastic tissue culture flasks and cultured in cell culture medium (DMEM with 5 g/l glucose, 2 mM glutamine, 100 U/ml penicillin, 100 μg/ml streptomycin, 10% fetal calf serum and sodium bicarbonate).
(§3) The cell suspensions that were prepared and diluted according to the particular cell type and the expected target cell density (2.500-30.000 cells per well based on cell growth characteristics) were added by pipette (80 μl) into 96/well microtiter plates. Inoculates were allowed a pre-incubation period of 24 hours at 37° C. and 5% CO2 for stabilisation. Four-fold dilutions of the intended test concentration were added at time zero in 20 μl aliquots to the microtiter plate wells. Usually, the compound tested was evaluated at six 4-fold dilutions. […] All compound concentrations were examined in duplicates. Incubations of cells with the tested compounds lasted for 72 hours at 37° C., in 5% CO2 atmosphere and 100% humidity. At the end of the incubation period, the cells were assayed by using Calcein AM. Ten microliters of the stock solution were pipetted into each well and incubated for 1 hour. Fluorescence (FD) was measured with the Labsystem FIA Reader Fluoroscan Ascent (UK).

[2] = test system: B10A.4; remark: listed apart in the source
From the text: as §1, §2, §3

[3] = test system: BJ (human foreskin fibroblasts)
From the text: as §1, §2, §3

[4] = test system: NIH-3T3
From the text: as §1, §2, §3

[5] = test system: BJ (human foreskin fibroblasts); assay: Calcein AM cytotoxicity, BJ; details: read-out: Cytotoxicity IC50, BJ; 72 hours incubation, Calcein AM; highest concentration […]
From the text: as §1, §2, §3

[6] = test system: NIH-3T3; assay: Calcein AM cytotoxicity, NIH-3T3; details: read-out: Cytotoxicity IC50, NIH-3T3; 72 hours incubation, Calcein AM; highest concentration […]
From the text: as §1, §2, §3

[7] = test system: B10A.4; assay: Calcein AM cytotoxicity, B10A.4 (second column); details: read-out: Cytotoxicity IC50, B10A.4, 72 hours incubation, highest concentration […]
From the text: as §1, §2, §3

[8] = test system: NIH3T3 fibroblasts; assay: Peroxidation of membrane lipids, MDA by TBA method; assay type: cell-based, mouse; details: FW = fresh weight
Procedure: A typical symptom associated with aging is the direct consequence of increased concentrations of reactive oxygen species and lipid peroxidation. […] MDA levels were measured using thiobarbituric acid (TBA method). […] The crude extract was centrifuged at 10,000×g for 5 minutes and 100 μl aliquots of the supernatant were mixed with 100 μl of 0.5% (w/v) TBA containing 0.1% (w/v) trichloroacetic acid. The resulting solution was then incubated for 30 min at 95° C. The samples were rapidly cooled on ice and centrifuged for 5 minutes at 1000×g. […] The newly prepared derivatives of the general formula thus have a protective function against the negative effects of reactive oxygen species that accumulate strongly in the tissues.

[9] = test system: B10A.4; assay: Calcein AM cytotoxicity, B10A.4 (first column); details: read-out: Cytotoxicity IC50, B10A.4; 72 hours incubation, Calcein AM; highest concentration […]
From the text: as §1, §2, §3

[10] = Radical scavenging activity determined by ORAC; details: relative to trolox; Mean ± SD (n = 3)
Procedure: The ability of compounds to scavenge free radicals in vitro was determined by Oxygen Radical Absorbance Capacity (ORAC) method. In brief, fluorescein (100 μl, […]) and 25 μl of compound solution were added into each working well in a 96-well microplate preincubated at 37° C. Thereafter, 25 μL of 250 mM AAPH was quickly added, microplate was shaken for 5 s and the fluorescence (Ex. 485 nm, Em. 510 nm) was read every 3 min over 90 min by using microplate reader Infinite 200 (TECAN, Switzerland). The net area under the curve was used to express antioxidant activity relative to trolox which was used as a standard.

[11] = Calcein AM cytotoxicity, BJ; details: human, BJ foreskin fibroblasts
From the text: as §1, §2, §3

[12] = Calcein AM cytotoxicity, NIH-3T3; details: mouse, NIH-3T3 fibroblasts
From the text: as §1, §2, §3

[13] = Calcein AM cytotoxicity, B10A.4 (first column); details: mouse, B10A.4 immortalized bone marrow macrophages
From the text: as §1, §2, §3

Row | IC50 [1] | IC50 [2] | IC50 [3] | IC50 [4] | SMILES | IC50 [5] | IC50 [6] | IC50 [7] | MDA [8] | IC50 [9] | other results
1 |  |  |  |  | Nc1ncnc2nc[nH]c12 [Adenine, reference compound] |  |  |  |  |  | IC50 ([1]; mouse, 72 h): > 167 µM; IC50 ([2]; mouse, 72 h): > 167 µM; IC50 ([3]; human, 72 h): > 167 µM; IC50 ([4]; mouse, 72 h): > 167 µM
2 |  |  |  |  | CC(C)=CCNc1nc(N(C)C)nc2c1ncn2C1CCO1 (stereo not drawn) [Compound 13] | > 167 µM | > 167 µM | > 167 µM | 13.1 nmol/g FW | > 167 µM | 
3 |  |  |  |  | CCN(CC)c1nc(NCC=C(C)C)c2ncn(C3CCO3)c2n1 (stereo not drawn) [Compound 14] | > 167 µM | > 167 µM | > 167 µM | 11.4 nmol/g FW | > 167 µM | 
4 |  |  |  |  | Cc1ccc(CNc2nc(N(C)C)nc3c2ncn3C2CCCO2)o1 (stereo not drawn) [Compound 46, 2-(Dimethylamino)-6-[(5-methylfurfuryl)amino]-9-(tetrahydrofuran-2-yl)-9H-purine] |  |  |  | 11.2 nmol/g FW |  | ORAC (compound/trolox) [10]: 0.14 ± 0.004; IC50 at 72 h [11]: > 167 µM; IC50 at 72 h [12]: > 167 µM; IC50 at 72 h [13]: > 167 µM
5 | > 167 µM | > 167 µM | > 167 µM | > 167 µM | CNc1nc(NCc2occc2OC)c2ncn(C3CCCO3)c2n1 (stereo not drawn) [Compound 49] |  |  |  | 12.3 nmol/g FW |  | 
6 |  |  |  |  | CN(C)CCNc1nc(NCc2ccco2)c2ncn(C3CCCCO3)c2n1 (stereo not drawn) [Compound 116, 2-{[2-(Dimethylamino)ethyl]amino}-6-furfurylamino-9-(tetrahydro-2H-pyran-2-yl)-9H-purine] |  |  |  | 9.2 nmol/g FW |  | ORAC (compound/trolox) [10]: 2.475 ± 0.086; IC50 at 72 h [11]: > 167 µM; IC50 at 72 h [12]: > 167 µM; IC50 at 72 h [13]: > 167 µM
7 |  |  |  |  | c1coc(CNc2ncnc3nc[nH]c23)c1 [Kinetin, N^6-furfuryladenine, reference compound] | 148 µM | 133 µM | 164 µM | 14.2 nmol/g FW | > 167 µM | 
8 | 147 µM | > 167 µM | 134 µM | 124 µM | CC(C)=CCNc1ncnc2nc[nH]c12 [isopentenyladenine, reference compound] |  |  |  |  |  | 
9 | ≥ 178 µM | > 167 µM | 166 µM | ≥ 167 µM | Oc1cccc(CNc2ncnc3nc[nH]c23)c1 [meta-topolin, reference compound] |  |  |  |  |  | 
